In ChEMBL document CHEMBL5625209, “Rational design and optimization of acylthioureas as novel potent influenza virus non-nucleoside polymerase inhibitors” (Eur J Med Chem, 2023):
Activity calls are given as the source filed them. No cut-off for these calls is given here.

Key:
[1] = system: Influenza A virus; assay: Antiviral activity against Influenza A virus H1N1 (A/Puerto Rico/8/34) infected in MDCK cells assessed as reduction in virus-induced cytopathic effect incubated for 48 hrs by CCK8 assay; type: functional, organism-based
[2] = Selectivity index, ratio of CC50 for MDCK cells to EC50 for antiviral activity against Influenza A virus H1N1 (A/Puerto Rico/8/34) infected in MDCK cells; type: toxicity, cell-based; conditions: dog, read-out: Ratio CC50/EC50
[3] = Cytotoxicity against MDCK cells by CCK-8 assay; type: toxicity, cell-based, Canis lupus familiaris; conditions: dog
[4] = AUC(0 to t) in Sprague-Dawley rat at 3 mg/kg, iv measured up to 24 hrs by LC-MS analysis; type: ADME, organism-based; conditions: in vivo
[5] = Cmax in Sprague-Dawley rat at 3 mg/kg, iv measured up to 24 hrs by LC-MS analysis; type: ADME, organism-based; conditions: in vivo
[6] = Tmax in Sprague-Dawley rat at 3 mg/kg, iv measured up to 24 hrs by LC-MS analysis; type: ADME, organism-based; conditions: in vivo
[7] = Half life in Sprague-Dawley rat at 10 mg/kg, po measured up to 24 hrs by LC-MS analysis; type: ADME, organism-based; conditions: in vivo
[8] = Oral bioavailability in Sprague-Dawley rat at 10 mg/kg measured up to 24 hrs by LC-MS analysis; type: ADME, organism-based; conditions: in vivo
[9] = AUC(0 to infinity) in Sprague-Dawley rat at 10 mg/kg, po measured up to 24 hrs by LC-MS analysis; type: ADME, organism-based; conditions: in vivo
[10] = AUC(0 to t) in Sprague-Dawley rat at 10 mg/kg, po measured up to 24 hrs by LC-MS analysis; type: ADME, organism-based; conditions: in vivo
[11] = Tmax in Sprague-Dawley rat at 10 mg/kg, po measured up to 24 hrs by LC-MS analysis; type: ADME, organism-based; conditions: in vivo
[12] = Cmax in Sprague-Dawley rat at 10 mg/kg, po measured up to 24 hrs by LC-MS analysis; type: ADME, organism-based; conditions: in vivo
[13] = system: Influenza B virus; assay: Antiviral activity against influenza B virus B/Yamagata/16/88 infected in MDCK cells; type: functional, organism-based; conditions: B/Yamagata/16/88, MDCK
[14] = AUC(0 to infinity) in Sprague-Dawley rat at 3 mg/kg, iv measured up to 24 hrs by LC-MS analysis; type: ADME, organism-based; conditions: in vivo
[15] = system: Influenza B virus; assay: Antiviral activity against influenza B virus Victoria/2/87 infected in MDCK cells; type: functional, organism-based; conditions: Victoria/2/87, MDCK
[16] = Half life in Sprague-Dawley rat at 3 mg/kg, iv measured up to 24 hrs by LC-MS analysis; type: ADME, organism-based; conditions: in vivo
[17] = Clearance in Sprague-Dawley rat at 3 mg/kg, iv measured up to 24 hrs by LC-MS analysis; type: ADME, organism-based; conditions: in vivo

Row | SMILES | selectivity ratio [2] | EC50 [1] [nM] | CC50 [3] [nM] | further results
1 | CC(=O)Nc1ccc(NC(=S)NC(=O)c2ccccc2)cc1 | – | – | – | Activity [1]: inactive
2 | CC(=O)Nc1ccc(NC(=S)NC(=O)c2ccc(C(C)(C)C)cc2)cc1 | 200 | 250 | 50000 | –
3 | COc1ccccc1NC(=S)NC(=O)c1ccc(C(C)(C)C)cc1 | > 909 | 110 | > 100000 | –
4 | CC(C)(C)c1ccc(C(=O)NC(=S)Nc2c(Br)cc(Br)cc2Br)cc1 | 169 | 360 | 60700 | –
5 | CCC(=O)Nc1ccc(NC(=S)NC(=O)c2ccc(C(C)(C)C)cc2)cc1 | 5430 | 16 | 86900 | AUC(0-t) at 24 h [4]: 1240 ng·h/mL; Cmax [5]: 3650 ng/mL; Tmax [6]: 4.8 min; half-life [7]: 113 min; bioavailability [8]: 0.83%; AUC(0-inf) [9]: 36 ng·h/mL; AUC(0-t) at 24 h [10]: 34 ng·h/mL; Tmax [11]: 25.2 min; Cmax [12]: 13 ng/mL; EC50 [13]: 2500 nM; AUC ([14]; iv, 3 mg/kg, 24 h): 1236 ng·h/mL; EC50 [15]: 3100 nM; half-life [16]: 51 min
6 | CC(C)(C)c1ccc(C(=O)NC(=S)Nc2ccccc2F)cc1 | > 2220 | 45 | > 100000 | –
7 | CC(C)(C)c1ccc(C(=O)NC(=S)Nn2cnnc2)cc1 | 74.9 | 880 | 65900 | –
8 | Cc1ncn(-c2ccc(NC(=S)NC(=O)c3ccc(C(C)(C)C)cc3)cc2)n1 | 3.1 | 16900 | 52700 | –
9 | Cc1ccc(NC(=S)NC(=O)c2ccc(C(C)(C)C)cc2)c(C)c1 | 2220 | 44 | 97900 | –
10 | CC(=O)Nc1ccc(NC(=S)NC(=O)c2cccs2)cc1 | 21.4 | 2440 | 52200 | –
11 | CC(C)(C)c1ccc(C(=O)NC(=S)Nc2ccc(-n3cncn3)cc2)cc1 | 77.1 | 700 | 54000 | –
12 | CC(C)(C)c1ccc(C(=O)NC(=S)Nc2ccccn2)cc1 | > 314 | 319 | > 100000 | –
13 | CC(C)(C)c1ccc(C(=O)NC(=S)Nc2cccc(F)c2)cc1 | 555 | 91 | 50500 | –
14 | COc1cccc(C(=O)Nc2ccc(NC(=S)NC(=O)c3ccc(C(C)(C)C)cc3)cc2)c1 | 3140 | 23 | 72200 | –
15 | CC(C)(C)C(=O)Nc1ccc(NC(=S)NC(=O)c2ccc(C(C)(C)C)cc2)cc1 | 5400 | 15 | 81000 | –
16 | Cc1ccc(C(=O)Nc2ccc(NC(=S)NC(=O)c3ccc(C(C)(C)C)cc3)cc2)cc1 | > 3700 | 27 | > 100000 | –
17 | CC(C)(C)c1ccc(C(=O)NC(=S)Nc2ccccc2Cl)cc1 | 1330 | 36 | 48000 | –
18 | CC(C)(C)c1ccc(C(=O)NC(=S)Nc2ccc(NC(=O)c3ccc(Br)cc3)cc2)cc1 | > 12500 | 8 | > 100000 | –
19 | CC(C)(C)c1ccc(C(=O)NC(=S)Nc2ccc(F)cc2)cc1 | > 164 | 610 | > 100000 | –
20 | CC(C)(C)c1ccc(C(=O)NC(=S)Nc2c(Br)cccc2Br)cc1 | 417 | 170 | 70900 | –
21 | CC(C)(C)c1ccc(C(=O)NC(=S)Nc2ccccc2Br)cc1 | 2660 | 32 | 85100 | –
22 | O=C(NC(=S)Nc1ccccc1F)c1cc2ccccc2s1 | > 10 | 10000 | > 100000 | –
23 | CC(=O)N[C@H]1[C@H]([C@H](O)[C@H](O)CO)OC(C(=O)O)=C[C@@H]1N=C(N)N [ZANAMIVIR] | > 1540 | – | > 100000 | –
24 | CC(C)(C)c1ccc(C(=O)NC(=S)Nc2c(Cl)cc(Cl)cc2Cl)cc1 | 167 | 480 | 80200 | –
25 | CC(C)(C)c1ccc(C(=O)NC(=S)Nc2ccc(O)cc2)cc1 | 3880 | 20 | 77700 | AUC(0-t) at 24 h [4]: 1100 ng·h/mL; Cmax [5]: 2520 ng/mL; clearance [17]: 46.4 mL/min/kg; Tmax [6]: 4.8 min; bioavailability [8]: 1.21%; AUC(0-t) at 24 h [10]: 44.3 ng·h/mL; Tmax [11]: 94.8 min; Cmax [12]: 12.8 ng/mL; EC50 [13]: 4000 nM; AUC(0-inf) ([14]; Sprague-Dawley): 1100 ng·h/mL; EC50 [15]: 5200 nM; half-life [16]: 30.6 min

Row | SMILES | selectivity ratio [2] | EC50 [1] [nM] | CC50 [3] [nM] | further results
26 | COc1ccc(C(=O)NC(=S)Nc2ccc(NC(C)=O)cc2)cc1 | – | – | – | Activity [1]: inactive
27 | Cc1ccc(NC(=S)NC(=O)c2ccc(C(C)(C)C)cc2)c(Br)c1 | 1280 | 32 | 41100 | EC50 [13]: 3200 nM; EC50 [15]: 6200 nM
28 | CC(C)(C)c1ccc(C(=O)NC(=S)Nc2ccc(NC(=O)c3ccccc3)cc2)cc1 | 19300 | 4 | 77200 | EC50 [13]: 700 nM; EC50 [15]: 600 nM
29 | CC(=O)Nc1ccc(NC(=S)NC(=O)c2ccc(N(C)C)cc2)cc1 | – | – | – | Activity [1]: inactive
30 | CC(C)(C)c1ccc(C(=O)NC(=S)Nc2ccc(N)cc2)cc1 | 4170 | 24 | 100000 | EC50 [13]: 1900 nM; EC50 [15]: 4900 nM
31 | CC(C)(C)c1ccc(C(=O)NC(=S)Nc2ccc(NC(=O)c3ccc(Cl)cc3)cc2)cc1 | > 33300 | 3 | > 100000 | EC50 [13]: 300 nM; EC50 [15]: 900 nM
32 | CC(C)(C)c1ccc(C(=O)N2C(=O)CN(c3ccccc3F)C2=S)cc1 | 7.1 | 3600 | 25400 | –
33 | COc1ccccc1C(=O)Nc1ccc(NC(=S)NC(=O)c2ccc(C(C)(C)C)cc2)cc1 | 2670 | 27 | 72200 | –
34 | CC(=O)Nc1ccc(NC(=S)NC(=O)c2ccc(C(C)C)cc2)cc1 | 4.2 | 11200 | 46900 | –
35 | CCc1ccc(C(=O)Nc2ccc(NC(=S)NC(=O)c3ccc(C(C)(C)C)cc3)cc2)cc1 | > 100000 | 1 | > 100000 | –
36 | COc1ccc(C(=O)Nc2ccc(NC(=S)NC(=O)c3ccc(C(C)(C)C)cc3)cc2)cc1 | 24100 | 3 | 72200 | EC50 [13]: 300 nM; EC50 [15]: 400 nM
37 | COc1cccc(C(=O)NC(=S)Nc2ccc(NC(C)=O)cc2)c1 | – | – | – | Activity [1]: inactive
38 | CC(C)(C)c1ccc(C(=O)NC(=S)Nc2ccc(F)cc2F)cc1 | 133 | 720 | 95700 | –
39 | CC(C)(C)c1ccc(C(=O)NC(=S)Nc2cc(Br)cc(Br)c2)cc1 | 111 | 640 | 70900 | –
40 | CCCc1ccc(C(=O)Nc2ccc(NC(=S)NC(=O)c3ccc(C(C)(C)C)cc3)cc2)cc1 | > 100000 | 1 | > 100000 | –
41 | CC(C)(C)c1ccc(C(=O)NC(=S)Nc2ccc3ccccc3n2)cc1 | 110 | 830 | 91700 | –
42 | CC(=O)Nc1ccc(NC(=S)NC(=O)c2cc3ccccc3s2)cc1 | 334 | 270 | 90200 | –
43 | CC(=O)Nc1ccc(NC(=S)NC(=O)c2ccc(Cl)cc2)cc1 | – | – | – | Activity [1]: inactive
44 | CC(=O)Nc1ccc(NC(=S)NC(=O)c2ccccc2Cl)cc1 | – | – | – | Activity [1]: inactive
45 | Cc1ccccc1NC(=S)NC(=O)c1ccc(C(C)(C)C)cc1 | > 2630 | 38 | > 100000 | –
46 | CCCCc1ccc(C(=O)Nc2ccc(NC(=S)NC(=O)c3ccc(C(C)(C)C)cc3)cc2)cc1 | > 12500 | 8 | > 100000 | –
47 | CC(C)(C)c1ccc(C(=O)NC(=S)Nc2ccc(NC(=O)c3ccc(F)cc3)cc2)cc1 | > 3700 | 27 | > 100000 | –
48 | CC(C)(C)c1ccc(C(=O)NC(=O)Nc2ccccc2F)cc1 | > 667 | 150 | 97900 | –
49 | CC(C)(C)c1ccc(C(=O)NC(=S)Nc2ccc(C(F)(F)F)cc2C(F)(F)F)cc1 | 165 | 450 | 74300 | –
50 | CCCCCc1ccc(C(=O)Nc2ccc(NC(=S)NC(=O)c3ccc(C(C)(C)C)cc3)cc2)cc1 | 7720 | 10 | 77200 | –
